# Experimental data from patent publication US9248124B2, “Use of inhibitors of IκB kinase for the treatment of cancer” (Millennium Pharmaceuticals, Inc., priority 2001, dated 2016).
# Legend:
# Format in all cases: cell-based, human
# STAT3 phosphorylation = test: Immunoblot of IL-6 induced STAT3 phosphorylation in MM.1S cells; conditions: IL-6 50 ng/mL for 5 min, compound 1 10 μM 90 min, FIG. 5
# Description: (§1) MM cells were cultured with PS-341 or compound 1; harvested; washed; and lysed using lysis buffer: 50 mM Tris-HCl (pH 7.4), 150 mM NaCl, 1% NP-40, 5 mM EDTA, 5 mM NaF, 2 mM Na3VO4, 1 mM PMSF, 5 μg/mL leupeptin, and 5 μg/mL aprotinin. For detection of phospho-IκBα, IκBα, phospho-MAPK, phospho-STAT3, ERK2 or alpha-tubulin, cell lysates were subjected SDS-PAGE, transferred to PVDF membrane (Bio-Rad Laboratories, Hercules, Calif.), and immunoblotted with anti-phospho-IκBα, -IκBα, -phospho-MAPK, or -phospho-STAT3 Abs (Cell Signaling, Beverly, Mass.), and anti-alpha-tubulin (Sigma) Abs.
# MM.1S cells = test: Growth inhibition / viability by MTT assay in MM.1S cells with TNFα
# Description: The inhibitory effect of PS-341 and compound 1 on MM growth was assessed by measuring 3-(4,5-dimethylthiazol-2-yl)-2,5-diphenyl […] bromide (MTT) dye absorbance of the cells. Cells from 48 h cultures were pulsed with […] of 5 mg/mL MTT to each well for the last 4 h of 48 h cultures, followed by 100 μL isopropanol containing 0.04N HCl. Absorbance was measured at 570 nm using a spectrophotometer (Molecular Devices Corp., Sunnyvale Calif.).
# IL-6 secretion in BMSCs = test: IL-6 secretion in BMSC cultures with or without MM.1S cells (ELISA); conditions: 0.4-10 μM, 48 h, dose dependent; FIG. 12A
# Excerpt: BM specimens were obtained from patients with MM. Mononuclear cells (MNCs) separated by Ficoll-Hipaque density sedimentation were used to established long-term BM cultures, as previously described (Uchiyama et al., Blood 82:3712-3720 (1993)). When an adherent cell monolayer had developed, cells were harvested in Hank's Buffered Saline Solution (HBSS) containing 0.25% trypsin and 0.02% EDTA, washed, and collected by centrifugation.
# To evaluate growth stimulation and signaling in MM cells adherent to BMSCs, 3×10^4 MM.1S cells were cultured in BMSC coated 96-well plates for 48 h, in the presence or absence of compound 1. DNA synthesis was measured as described above. The Duoset ELISA (R&D System) was used to measure IL-6 in supernatants of 48 h cultures of BMSCs with or without MM.1S cells, in the presence or absence of compound 1.
# [1] = tested on: IκBα phosphorylation and degradation in patient MM cells; test: Immunoblot of IκBα phosphorylation and degradation triggered by TNFα in patient cells; conditions: 10 μM for 90 min, TNFα 5 ng/mL, FIG. 1C
# Description: Dex-sensitive (MM.1S) human MM cell line was kindly provided by Dr. Steven Rosen (Northwestern University, Chicago, Ill.). RPMI8226 and U266 human MM cells were obtained from American Type Culture Collection (Rockville, Md.). All MM cell lines cultured in RPMI-1640 containing 10% fetal bovine serum (FBS, Sigma Chemical Co., St. Louis, Mo.), […], 100 U/mL penicillin (Pen) and 100 μg/mL streptomycin (Strep) (GIBCO, Grand Island, N.Y.). Patient MM cells were purified from patient BM aspirates using RosetteSep separation system (StemCell Technologies, Vancouver, Canada). The purity of MM cells was confirmed by flow cytometry using PE-conjugated anti-CD138 antibody (Beckton Dickinson Co.).
# as §1
# Inhibition of IκBα phosphorylation by compound 1 was assayed in MM.1S and patient MM cells triggered by TNFα. […]
# [2] = tested on: IκBα phosphorylation and degradation in MM.1S cells; test: Immunoblot of IκBα phosphorylation and degradation triggered by TNFα in MM.1S cells
# Description: as §1
# Inhibition of IκBα phosphorylation by compound 1 was assayed in MM.1S and patient MM cells triggered by TNFα. […] To study the dose-dependent effect of compound 1, MM.1S cells were pre-treated with 1.25-40 μM compound 1 for 90 min, and then stimulated by TNFα (5 ng/mL).
# The effect of Dex, compound 1, PS-341 and/or IL-6 on TNFα induced phosphorylation of IκBα in MM.1S cells was next examined. […] In contrast compound 1, in the presence or absence of IL-6, inhibits phosphorylation of IκBα. Dex inhibits TNFα-induced degradation of IκBα, whereas IL-6 blocks this effect. Both PS-341 and compound 1 inhibit degradation of IκBα, in the presence or absence of IL-6.
# Akt phosphorylation = test: Phosphorylation of Akt triggered by IL-6 in MM.1S cells; conditions: compound 1 pre-treatment, data not shown
# U266 cells = test: Cell cycle profile by PI staining and flow cytometry, U266; conditions: 10 μM for 24, 36 and 48 h, FIG. 4
# Description: For cell cycle analysis, MM cells cultured for 24-48 h in compound 1 (10 μM), Dex (1 μM); IL-6 (20 ng/mL), or control media were harvested, washed with phosphate-buffered saline (PBS), fixed with 70% ethanol, and treated with 10 μg/mL of RNase (Roche Diagnostics Corp., Indianapolis, Ind.). Cells were then stained with propidium iodine (PI, Sigma) (5 μg/mL). For detection of ICAM-1 expression, MM cells cultured in TNFα (5 ng/mL) in the presence or absence of compound 1 (10 μM) were harvested, washed with PBS, and stained with mouse IgG isotype control or FITC-conjugated mouse anti-human CD54 Ab. Both cell cycle profile and ICAM-1 expression were determined using an Epics (Coulter Immunology, Hialeah, Fla.) flow cytometer, as in prior studies (Hideshima et al., Oncogene 20:4519 (2001)).
smiles,measurement,setting,value
"O=C(Nc1cc(Cl)cc2c1[nH]c1cnccc12)c1cccnc1 [compound 1, N-(6-chloro-9H-β-carbolin-8-yl)-nicotinamide]",STAT3 phosphorylation,STAT3 phosphorylation,does not inhibit
same,inhibition at 10 µM,"MM.1S cells; Homo sapiens, MM1.S, TNFα 1 ng/mL in the presence of 10 μM compound 1, 48 h",60%
same,viability of MM.1S cells (MTT assay),"MM.1S cells; TNFα 0.2 and 1 ng/mL in the presence of compound 1 2.5-10 μM, 48 h, p<0.001, FIG. 11",significantly decreased
same,constitutive secretion of IL-6 in BMSCs,IL-6 secretion in BMSCs,blocks
same,increased IL-6 secretion triggered by adhesion of MM.1S cells to BMSCs,IL-6 secretion in BMSCs,blocks
same,phosphorylation and degradation of IκBα triggered by TNFα,[1],inhibited
same,TNFα-induced phosphorylation of IκBα,"[2]; Dex 1 μM 18 h, PS-341 5 μM 60 min, compound 1 10 μM 90 min, presence or absence of IL-6, TNFα 5 ng/mL 5 min, FIG. 7",inhibits
same,TNFα-induced degradation of IκBα,"[2]; Dex 1 μM 18 h, PS-341 5 μM 60 min, compound 1 10 μM 90 min, TNFα 5 ng/mL 5 min, FIG. 7",inhibit
same,phosphorylation and degradation of IκBα,"[2]; compound 1 pre-treatment 10 μM for 90 min, then TNFα 5 ng/mL, FIG. 1A",completely blocked
same,concentration at which phosphorylation of IκBα was completely inhibited,"[2]; pre-treated with 1.25-40 μM for 90 min, then TNFα 5 ng/mL, FIG. 1B",≥ 5 µM
same,Phosphorylation of Akt triggered by IL-6,Akt phosphorylation,unaffected
same,cell cycle profile,U266 cells,"induced G1 growth arrest, but not apoptosis"
